Measured values published in ChEMBL document CHEMBL1136728, “Antitumor activity of novel deoxoartemisinin monomers, dimers, and trimer” (J Med Chem, 2003).
Values after ≈ are worked out from the molar mass of the structure shown.

Experiments:
Format in all cases: functional, cell-based
[1] = test system: HT-29; assay: In vitro cytotoxicity of compound against HT29, human colorectal adenocarcinoma was defined by microculture tetrazolium assay
[2] = test system: MCF7; assay: In vitro cytotoxicity of compound against MCF7, human breast cancer was defined by microculture tetrazolium assay
[3] = test system: BeWo; assay: In vitro cytotoxicity of compound against Bewo, human choriocarcinoma was defined by microculture tetrazolium assay
[4] = test system: EL4; assay: In vitro cytotoxicity of compound against EL4, mouse thymoma was defined by microculture tetrazolium assay
[5] = test system: P388; assay: In vitro cytotoxicity of compound against P388, mouse […] leukemia was defined by microculture tetrazolium assay

Row | SMILES | IC50 [1] | IC50 [2] | IC50 [3] | IC50 [4] | IC50 [5]
1 | C[C@H]1[C@@H](CCNC(=O)CC[C@H]2O[C@@H]3O[C@]4(C)CC[C@H]5[C@H](C)CC[C@@H]([C@H]2C)[C@]35OO4)O[C@@H]2O[C@]3(C)CC[C@H]4[C@H](C)CC[C@@H]1[C@]24OO3 | 0.69 µg/mL (≈ 1.09 µM) | 0.005 µg/mL (≈ 0.00789 µM) | 7.5 µg/mL (≈ 11.8 µM) | 6.29 µg/mL (≈ 9.92 µM) | 10.4 µg/mL (≈ 16.4 µM)
2 | C[C@H]1[C@@H](CCSCC[C@H]2O[C@@H]3O[C@]4(C)CC[C@H]5[C@H](C)CC[C@@H]([C@H]2C)[C@]35OO4)O[C@@H]2O[C@]3(C)CC[C@H]4[C@H](C)CC[C@@H]1[C@]24OO3 | 0.24 µg/mL (≈ 0.385 µM) | 0.017 µg/mL (≈ 0.0273 µM) | 14.2 µg/mL (≈ 22.8 µM) | 0.23 µg/mL (≈ 0.369 µM) | 0.4 µg/mL (≈ 0.642 µM)
3 | C[C@H]1[C@@H](CCS(=O)(=O)CC[C@H]2O[C@@H]3O[C@]4(C)CC[C@H]5[C@H](C)CC[C@@H]([C@H]2C)[C@]35OO4)O[C@@H]2O[C@]3(C)CC[C@H]4[C@H](C)CC[C@@H]1[C@]24OO3 | 0.38 µg/mL (≈ 0.58 µM) | 0.025 µg/mL (≈ 0.0382 µM) | 1.04 µg/mL (≈ 1.59 µM) | 0.54 µg/mL (≈ 0.825 µM) | 5.6 µg/mL (≈ 8.55 µM)
4 | C[C@H]1[C@@H](CCS(=O)(=O)CCCS(=O)(=O)CC[C@H]2O[C@@H]3O[C@]4(C)CC[C@H]5[C@H](C)CC[C@@H]([C@H]2C)[C@]35OO4)O[C@@H]2O[C@]3(C)CC[C@H]4[C@H](C)CC[C@@H]1[C@]24OO3 | 0.38 µg/mL (≈ 0.499 µM) | 5.6 µg/mL (≈ 7.36 µM) | 8.5 µg/mL (≈ 11.2 µM) | 10 µg/mL (≈ 13.1 µM) | 8.4 µg/mL (≈ 11 µM)
5 | C[C@H]1[C@@H](CCCCNC(=O)CC[C@H]2O[C@@H]3O[C@]4(C)CC[C@H]5[C@H](C)CC[C@@H]([C@H]2C)[C@]35OO4)O[C@@H]2O[C@]3(C)CC[C@H]4[C@H](C)CC[C@@H]1[C@]24OO3 | 20.2 µg/mL (≈ 30.5 µM) | > 20 µg/mL | > 20 µg/mL | > 20 µg/mL | > 20 µg/mL
6 | C[C@H]1[C@@H](CCCCN=[N+]=[N-])O[C@@H]2O[C@]3(C)CC[C@H]4[C@H](C)CC[C@@H]1[C@]24OO3 | 2.76 µg/mL (≈ 7.55 µM) | 11.6 µg/mL (≈ 31.7 µM) | > 20 µg/mL | 1.61 µg/mL (≈ 4.41 µM) | 10.3 µg/mL (≈ 28.2 µM)
7 | C[C@H]1[C@@H](CCCCN)O[C@@H]2O[C@]3(C)CC[C@H]4[C@H](C)CC[C@@H]1[C@]24OO3 | 2.2 µg/mL (≈ 6.48 µM) | 0.02 µg/mL (≈ 0.0589 µM) | > 20 µg/mL | 5.63 µg/mL (≈ 16.6 µM) | 6.18 µg/mL (≈ 18.2 µM)
8 | C[C@H]1[C@@H](CCNC(=O)CC[C@H](N)C(=O)NCC[C@H]2O[C@@H]3O[C@]4(C)CC[C@H]5[C@H](C)CC[C@@H]([C@H]2C)[C@]35OO4)O[C@@H]2O[C@]3(C)CC[C@H]4[C@H](C)CC[C@@H]1[C@]24OO3 | 6.5 µg/mL (≈ 8.86 µM) | 15.3 µg/mL (≈ 20.8 µM) | > 20 µg/mL | 16.5 µg/mL (≈ 22.5 µM) | 15.6 µg/mL (≈ 21.3 µM)
9 | C[C@H]1[C@@H](CCNC(=O)CC[C@H](NC(=O)CC[C@H]2O[C@@H]3O[C@]4(C)CC[C@H]5[C@H](C)CC[C@@H]([C@H]2C)[C@]35OO4)C(=O)NCC[C@H]2O[C@@H]3O[C@]4(C)CC[C@H]5[C@H](C)CC[C@@H]([C@H]2C)[C@]35OO4)O[C@@H]2O[C@]3(C)CC[C@H]4[C@H](C)CC[C@@H]1[C@]24OO3 | 0.09 µg/mL (≈ 0.0852 µM) | 0.017 µg/mL (≈ 0.0161 µM) | 18.3 µg/mL (≈ 17.3 µM) | 1.07 µg/mL (≈ 1.01 µM) | 0.12 µg/mL (≈ 0.114 µM)
10 | C[C@H]1[C@@H](CCC(=O)N[C@@H](CCC(=O)O)C(=O)O)O[C@@H]2O[C@]3(C)CC[C@H]4[C@H](C)CC[C@@H]1[C@]24OO3 | 8.6 µg/mL (≈ 18.3 µM) | 13.4 µg/mL (≈ 28.5 µM) | > 20 µg/mL | > 20 µg/mL | > 20 µg/mL
11 | COc1cccc2c1C(=O)c1c(O)c3c(c(O)c1C2=O)C[C@@](O)(C(=O)CO)C[C@@H]3O[C@H]1C[C@H](N)[C@H](O)[C@H](C)O1 [DOXORUBICIN] | 0.1 µg/mL (≈ 0.184 µM) |  | 6.24 µg/mL (≈ 11.5 µM) | 0.67 µg/mL (≈ 1.23 µM) | 0.39 µg/mL (≈ 0.718 µM)
12 | CO[C@@]12[C@H](COC(N)=O)C3=C(C(=O)C(C)=C(N)C3=O)N1C[C@@H]1N[C@@H]12 [MITOMYCIN] | 0.02 µg/mL (≈ 0.0598 µM) | 0.93 µg/mL (≈ 2.78 µM) | 0.85 µg/mL (≈ 2.54 µM) | 3.94 µg/mL (≈ 11.8 µM) | 1.5 µg/mL (≈ 4.49 µM)
13 | CC(=O)O[C@H]1C(=O)[C@@]2(C)[C@H]([C@H](OC(=O)c3ccccc3)[C@]3(O)C[C@H](OC(=O)[C@H](O)[C@@H](NC(=O)c4ccccc4)c4ccccc4)C(C)=C1C3(C)C)[C@]1(OC(C)=O)CO[C@@H]1C[C@@H]2O [PACLITAXEL] | 0.01 µg/mL (≈ 0.0117 µM) |  | 7.39 µg/mL (≈ 8.65 µM) | 1.34 µg/mL (≈ 1.57 µM) | 2.27 µg/mL (≈ 2.66 µM)
